PMC10447463, “Data-mining unveils structure–property–activity correlation of viral infectivity enhancing self-assembling peptides” (Nature Communications, 2023)
Read-outs that look alike come from different tables or passages of the source.

Legend:
[1] = Conversion rate (CR) assay with fluorescamine; assay type: physicochemical; set-up: key to CR: % = 100−100×filtrate/original fluorescence intensity; conditions: conversion rate, fluorescamine assay; for CR / %: Fig. S7 panel B
Outline: (§1)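 Using ATR FT-IR (diamond, 2 cm^-1, 64 scans), lyophilized 1 mg/mL PNF samples gave β-sheet content by a published calculation. Fluorescamine signals of 3 kDa filtrates relative to unfiltered samples, normalised to DMSO as 1, yielded CR in percent.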

[2] = system: HIV-1 infection of TZM-bl cells; assay: HIV-1 infectivity enhancement assay, β-galactosidase luminescence; assay type: cell-based; conditions: for Rel-EFC / Log10 Infection Rel EFC: 1.3 µM peptide; for Rel-EFC: infection relative to EF-C (QCKIKQIINMWQ = 1); for Log10 Infection Rel EFC: log10 of infection relative to EF-C; for Log Infectivity: Log10 infection relative to EF-C, TZM-bl cells, asymmetric std dev errors; for Log10 Infection Rel EF-C: HIV-1 infection of TZM-bl cells; for Log10 of Rel to EFC (Feb2021): Log10 of infection relative to EF-C
[3] = assay type: physicochemical; conditions: for ThT Cat. / ThT-Fluorescence (categorical): ThT-active if fluorescence at least twice the control
Outline: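 Fibrils (1 mg/mL solution) were mixed with 50 µM ThT in PBS for 15 min at RT, and fluorescence was read at λex 440/λem 488 nm against a PBS blank, as a triplicate mean ± SD. Zeta potential came from electrophoretic mobility (Smoluchowski) after 1 d aggregation at 1 mg/mL in PBS pH 7.4, diluted into 1 mM KCl.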

[4] = β-sheet content by ATR-FT-IR; assay type: physicochemical; conditions: for b -sheet / %: Fig. S7 panel A, β-sheet content by ATR-FT-IR
Outline: as §1

[5] = Fig. S7 panel A (plotted against β-sheet content)
[6] = Fig. S7 panel B (plotted against CR), rounded to two decimals
[7] = Log10 of infection rate relative to EF-C, Figure 3A source data
[8] = infection rate relative to EF-C, log10, data of Figure 2D
[9] = infection rate relative to EF-C, log10, source data of Figure 2C
[10] = ThT fluorescence category, 1 if Rel. ThT >2

Substance | CR / % [1] [%] | CR [1] | Rel-EFC [2] | Log10 Infection Rel EFC [2] | Log Infectivity [2, 5] | Log Infectivity [2, 6] | Log10 Infection Rel EF-C [2, 7] | Log10 Infection Rel EF-C [2, 8] | Log10 Infection Rel EF-C [2, 9] | Log10 of Rel to EFC (Feb2021) ([2]; all peptides of FigS16) | Tht category (> 2 to blank = +) ([3]; Fig S10 panel D) | ThT Cat. ([3]; Fig S10 panel E) | ThT Cat, ([3]; ThT category, 1 if Rel. ThT >2) | ThT Cat. [3, 10] | ThT Cat. / ThT-Fluorescence (categorical) [3] | b -sheet / % [4] [%] | Tht category (> 2 to blank = +) ([3]; FigS12 panel A) | ThT Cat, ([3]; FigS12 panel B) | further results
KIKIKIKIWW | 92 | 92 | 0,37 | -0,43 | -0.4266 | -0.43 | -0.43 | -0.4266 | -0.4266 | -0.43 | 1 (ThT. Cat is 1, if Rel. ThT >2) | 1 (ThT. Cat is 1, if Rel. ThT >2) | 1 (ThT. Cat is 1, if Rel. ThT >2) | 1 (ThT. Cat is 1, if Rel. ThT >2) | 1 (ThT. Cat is 1, if Rel. ThT >2) | 48.82 | – | – | Log10 of Rel to EFC (Feb2021) ([2]; second listing, peptides with TEM 2cat 0): -0.43; beta sheet ([4]; peptides with TEM 2cat 0): 49
KIKIKIQI | 80 | 80 | 0,1 | -1,01 | -1.014 | -1.01 | -1.01 | -1.014 | -1.014 | – | 1 (ThT. Cat is 1, if Rel. ThT >2) | 1 (ThT. Cat is 1, if Rel. ThT >2) | 1 (ThT. Cat is 1, if Rel. ThT >2) | 1 (ThT. Cat is 1, if Rel. ThT >2) | 1 (ThT. Cat is 1, if Rel. ThT >2) | 40.16 | 1 (ThT. Cat is 1, if Rel. ThT >2) | 1 (ThT. Cat is 1, if Rel. ThT >2) | –
KIKIQIC | 51.5 | 51.55 | 0,61 | -0,22 | -0.2164 | -0.22 | -0.22 | -0.2164 | -0.2164 | -0.22 | 1 (ThT. Cat is 1, if Rel. ThT >2) | 1 (ThT. Cat is 1, if Rel. ThT >2) | 1 (ThT. Cat is 1, if Rel. ThT >2) | 1 (ThT. Cat is 1, if Rel. ThT >2) | 1 (ThT. Cat is 1, if Rel. ThT >2) | 52.93 | – | – | Infection RLU/s, 1.3 µm abs ([2]; peptide 1.3 µm (so in the source), mean of the 3 replicates): 9447 RLU/s; FTIR ß-sheet content [4]: 52.93%
KIKIQIII | 87 | 87 | 0,35 | -0,45 | -0.4521 | -0.45 | -0.45 | -0.4521 | -0.4521 | -0.45 | 1 (ThT. Cat is 1, if Rel. ThT >2) | 1 (ThT. Cat is 1, if Rel. ThT >2) | 1 (ThT. Cat is 1, if Rel. ThT >2) | 1 (ThT. Cat is 1, if Rel. ThT >2) | 1 (ThT. Cat is 1, if Rel. ThT >2) | 45.8425 | – | – | –
KIKQII | 13 | 12.97 | 0 | -2,31 | -2.308 | -2.31 | -2.31 | -2.308 | -2.308 | – | 0 (ThT-inactive (N-Fold <2)) | 0 (ThT-inactive (N-Fold <2)) | 0 (ThT-inactive (N-Fold <2)) | 0 (ThT-inactive (N-Fold <2)) | 0 (ThT-inactive (N-Fold <2)) | 38.67 | 0 (ThT-inactive (N-Fold <2)) | 0 (ThT-inactive (N-Fold <2)) | –
